In general, Cmax refers to the peak of the concentration-time curve. What is called IC50 is the point on the concentration scale where inhibition reaches its midpoint. Broadly, the half-life is the time needed for the level to fall by half in the phase considered. One may read the fraction unbound as the share of the substance not bound to proteins or other matrix.

Data set [1] relates to Mus musculus. In words: Anti-inflammatory activity against MRL/Ipr Systemic lupus erythematosus mouse model assessed as inhibition of proteinuria at 20 mg/kg, po administered for 8 weeks and measured 24 hrs post final dose relative to control. It is filed as functional. The arrangement: scale not given: the % may be the effect or the level left. The settings on record: time 1368 hrs.

Data set [2] relates to Mus musculus. In words: Anti-inflammatory activity against MRL/Ipr Systemic lupus erythematosus mouse model assessed as inhibition of proteinuria at 0.1 mg/kg, po administered for 8 weeks and measured 24 hrs post final dose relative to control. The arrangement: scale not given: the % may be the effect or the level left. It is filed as functional. The settings on record: time 1368 hrs.

Data set [3] in a line: In vivo antagonist activity at TRL9 in C57BL/6 mouse assessed as inhibition of ODN1585 stimulated IL-6 production at 3 mg/kg,po for 30 minutes and followed by ODN1585 addition measured after 90 mins by ELISA analysis relative to control. The settings on record: time 120 min, 2 h. Set-up: scale not given: the % may be the effect or the level left. It counts as functional. For orientation: ELISA stands for enzyme-linked immunosorbent assay.

Data set [4] is described as follows: Cmax in mouse blood at 15 mg/kg, po. It is filed as ADME, organism-based. Set-up: dose 15 mg/kg, route po.
A short description of data set [5]: In vivo antagonist activity at TRL9 in C57BL/6 mouse assessed as inhibition of ODN1585 stimulated IL-6 production at 1 mg/kg,po for 30 minutes and followed by ODN1585 addition measured after 90 mins by ELISA analysis relative to control. It counts as functional. The arrangement: scale not given: the % may be the effect or the level left. The settings on record: time 120 min, 2 h.

For a further data set, the target named is Toll-like receptor 4 (Homo sapiens, UniProt O00206). Nature of the data set: Antagonist activity at […] stimulated human TRL4 overexpressed in HEK293 cells assessed as inhibition of NF kappa B/Ap-1 activation preincubated with compound for 30 mins followed by […] stimulation measured after 22 hrs by SEAP reporter assay. It is filed as cell-based. (In general: Reporter assays use an easily measured gene product as a stand-in for the process of interest.)

The nature of data set [6]: Half life in mouse blood at 5 mg/kg, iv. It counts as ADME, organism-based.
Data set [7] concerns Mus musculus. In words: Anti-inflammatory activity against MRL/Ipr Systemic lupus erythematosus mouse model assessed as inhibition of anti-Sm/RNP Ab titer at 1 mg/kg, po administered for 8 weeks and measured 24 hrs post final dose relative to control. It is filed as functional. The arrangement: scale not given: the % may be the effect or the level left. Conditions: time 1368 hrs.

The nature of data set [8]: Toxicity in MRL/Ipr Systemic lupus erythematosus mouse model assessed as change in body weight at 0.1 to 20 mg/kg, po administered for 8 weeks and measured 24 hrs post final dose. It is filed as organism-based. Conditions: in vivo, 1368 h, dose 0.1-20 mg/kg.
The subject of data set [9] is Mus musculus. In words: Anti-inflammatory activity against MRL/Ipr Systemic lupus erythematosus mouse model assessed as inhibition of anti-dsDNA Ab titer at 1 mg/kg, po administered for 8 weeks and measured 24 hrs post final dose relative to control. It counts as functional. The arrangement: scale not given: the % may be the effect or the level left. The settings on record: time 1368 hrs.

A short description of data set [10]: Toxicity in MRL/Ipr Systemic lupus erythematosus mouse model assessed as relative spleen weight at 1 mg/kg, po administered for 8 weeks and measured 24 hrs post final dose relative to control. It counts as organism-based. The settings on record: in vivo, 1368 h.
The subject of data set [11] is Mus musculus. Nature of the data set: Anti-inflammatory activity against MRL/Ipr Systemic lupus erythematosus mouse model assessed as inhibition of anti-Sm/RNP Ab titer at 5 mg/kg, po administered for 8 weeks and measured 24 hrs post final dose relative to control. It is filed as functional. The arrangement: scale not given: the % may be the effect or the level left. Conditions: time 1368 hrs.

A further data set has as its target T1, Toll-like receptor 8 (Homo sapiens, UniProt Q9NR97).
T1 sequence (Q9NR97 whole entry): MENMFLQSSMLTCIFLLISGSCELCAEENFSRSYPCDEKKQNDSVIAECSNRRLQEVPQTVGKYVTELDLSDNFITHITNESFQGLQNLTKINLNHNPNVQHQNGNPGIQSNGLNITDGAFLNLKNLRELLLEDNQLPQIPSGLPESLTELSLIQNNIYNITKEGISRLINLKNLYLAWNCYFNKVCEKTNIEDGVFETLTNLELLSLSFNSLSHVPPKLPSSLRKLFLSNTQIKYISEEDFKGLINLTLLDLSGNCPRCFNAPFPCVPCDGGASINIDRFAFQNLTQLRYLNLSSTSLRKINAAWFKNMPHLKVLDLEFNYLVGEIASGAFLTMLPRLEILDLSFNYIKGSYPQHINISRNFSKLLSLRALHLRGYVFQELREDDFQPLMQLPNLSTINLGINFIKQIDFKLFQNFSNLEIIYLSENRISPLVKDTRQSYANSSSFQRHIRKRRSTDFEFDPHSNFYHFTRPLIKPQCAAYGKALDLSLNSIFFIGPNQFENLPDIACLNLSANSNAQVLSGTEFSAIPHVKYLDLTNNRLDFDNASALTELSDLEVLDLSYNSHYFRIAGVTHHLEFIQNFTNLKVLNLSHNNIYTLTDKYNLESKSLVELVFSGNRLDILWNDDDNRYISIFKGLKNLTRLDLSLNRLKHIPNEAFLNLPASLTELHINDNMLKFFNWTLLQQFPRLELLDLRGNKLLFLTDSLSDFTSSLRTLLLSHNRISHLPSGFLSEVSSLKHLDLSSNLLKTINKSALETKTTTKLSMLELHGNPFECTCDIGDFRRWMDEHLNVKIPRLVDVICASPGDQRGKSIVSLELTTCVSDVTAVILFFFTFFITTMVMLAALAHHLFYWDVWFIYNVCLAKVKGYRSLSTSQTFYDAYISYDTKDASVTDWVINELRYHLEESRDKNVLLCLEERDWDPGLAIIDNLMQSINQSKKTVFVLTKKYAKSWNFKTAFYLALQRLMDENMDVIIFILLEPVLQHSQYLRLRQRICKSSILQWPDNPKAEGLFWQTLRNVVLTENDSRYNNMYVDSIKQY

Data set [12] can be described thus: In vivo antagonist activity at TRL7 in C57BL/6 mouse assessed as inhibition of gardiquimod stimulated IL-6 production at […],po for 30 minutes and followed by gardiquimod addition measured after 90 mins by ELISA analysis relative to control. It is filed as functional. Set-up: scale not given: the % may be the effect or the level left. The settings on record: time 120 min, 2 h.

For data set [13], the system named is Mus musculus. Nature of the data set: Anti-inflammatory activity against MRL/Ipr Systemic lupus erythematosus mouse model assessed as inhibition of urinary NGAL at 1 mg/kg, po administered for 8 weeks and measured 24 hrs post final dose relative to control. The arrangement: scale not given: the % may be the effect or the level left. It counts as functional. Conditions: time 1368 hrs.

A short description of data set [14]: In vivo antagonist activity at TRL9 in C57BL/6 mouse assessed as inhibition of ODN1585 stimulated IL-6 production at 30 mg/kg,po for 30 minutes and followed by ODN1585 addition measured after 90 mins by ELISA analysis relative to control. Set-up: scale not given: the % may be the effect or the level left. The settings on record: time 120 min, 2 h. It counts as functional.

Data set [15] in a line: Plasma protein binding in rat assessed as free fraction. It counts as ADME, cell-free.

Chain of Toll-like receptor 4 (O00206 whole entry): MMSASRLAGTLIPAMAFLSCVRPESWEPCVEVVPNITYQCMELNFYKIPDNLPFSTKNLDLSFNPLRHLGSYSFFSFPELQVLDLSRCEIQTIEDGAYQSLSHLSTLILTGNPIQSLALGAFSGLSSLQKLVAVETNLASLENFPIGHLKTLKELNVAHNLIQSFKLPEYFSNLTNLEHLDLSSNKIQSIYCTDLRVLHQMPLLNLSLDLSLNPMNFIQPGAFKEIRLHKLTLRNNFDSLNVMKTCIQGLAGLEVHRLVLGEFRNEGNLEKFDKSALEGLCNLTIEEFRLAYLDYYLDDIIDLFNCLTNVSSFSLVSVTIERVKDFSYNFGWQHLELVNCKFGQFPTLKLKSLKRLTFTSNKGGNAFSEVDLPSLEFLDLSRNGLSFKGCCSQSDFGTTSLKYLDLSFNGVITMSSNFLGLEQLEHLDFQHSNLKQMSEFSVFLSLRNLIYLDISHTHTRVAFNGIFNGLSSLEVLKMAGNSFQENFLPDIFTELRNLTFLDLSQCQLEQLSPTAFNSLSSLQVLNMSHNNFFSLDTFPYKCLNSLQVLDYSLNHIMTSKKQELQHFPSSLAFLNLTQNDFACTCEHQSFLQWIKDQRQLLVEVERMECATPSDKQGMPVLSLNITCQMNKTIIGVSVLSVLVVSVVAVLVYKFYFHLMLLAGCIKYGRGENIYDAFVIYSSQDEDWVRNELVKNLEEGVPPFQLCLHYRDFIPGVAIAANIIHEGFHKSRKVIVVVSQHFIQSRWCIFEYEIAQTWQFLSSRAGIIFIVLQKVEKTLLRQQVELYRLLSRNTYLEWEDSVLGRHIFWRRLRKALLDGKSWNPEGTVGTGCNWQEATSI

Consider `Cc1cc(-c2[nH]c3ccc(C4CCNCC4)cc3c2C(C)C)cc(C)n1`, for which the Activity in the data set on Mus musculus [1] is reported as 93%; with Mus musculus [2], 69%; in data set [3], 29%; in [5] it was 16%; with Mus musculus [7], 84%; in data set [8], “Non-Toxic”. The Activity amounted to 14% with Mus musculus [9]; 48% in data set [10]; 74% in the data set on Mus musculus [11]; 16% in [12]; 69% in the data set on Mus musculus [13]; 38% in data set [14]. In data set [4], this compound had a Cmax of 255 nM. In addition, the IC50 was more than 10000 nM at Toll-like receptor 4 and 4.2 nM against Toll-like receptor 8. This compound showed a half-life in data set [6] of 9 h. Moreover, the unbound share (fraction unbound) in data set [15] came to 0.11.

The values are drawn from ChEMBL document CHEMBL5131534, “Identification of 2-Pyridinylindole-Based Dual Antagonists of Toll-like Receptors 7 and 8 (TLR7/8)” (ACS Med Chem Lett, 2022).
